Experimental data as given in the kinase profiling compilation of Christmann-Franck et al. (2016).
Values belong to the compound of their own block, whether it stands above or below them.

Legend:
Assay in all cases: KINOMEscan competition binding
PIP4K2B (human) = PIP4K2B (human) (UniProt P78356); conditions: compound 10.0 µM
STK17B (human) = STK17B (human) (UniProt O94768); conditions: for kinase still bound, per cent of control: compound 10.0 µM
CDK16 (human) = CDK16 (human) (UniProt Q00536); conditions: compound 10.0 µM
MKNK2 (human) = MKNK2 (human) (UniProt Q9HBH9); conditions: compound 10.0 µM
DMPK (human) = DMPK (human) (UniProt Q09013); conditions: compound 10.0 µM
CSNK2A2 (human) = CSNK2A2 (human) (UniProt P19784); conditions: for kinase still bound, per cent of control: compound 10.0 µM
Sequence of CSNK2A2 (human) (P19784 whole entry, looked up): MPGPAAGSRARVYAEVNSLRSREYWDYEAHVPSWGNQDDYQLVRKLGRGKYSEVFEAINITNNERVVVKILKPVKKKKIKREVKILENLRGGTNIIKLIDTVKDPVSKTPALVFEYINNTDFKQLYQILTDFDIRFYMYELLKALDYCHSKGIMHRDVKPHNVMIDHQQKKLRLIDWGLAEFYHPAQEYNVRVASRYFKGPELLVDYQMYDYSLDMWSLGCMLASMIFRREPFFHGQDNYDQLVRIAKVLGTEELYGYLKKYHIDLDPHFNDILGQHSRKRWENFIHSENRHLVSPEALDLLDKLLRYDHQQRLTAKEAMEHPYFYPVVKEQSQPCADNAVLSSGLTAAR

GSK3A (human) = GSK3A (human) (UniProt P49840); conditions: compound 10.0 µM
RIOK1 (human) = RIOK1 (human) (UniProt Q9BRS2); conditions: compound 10.0 µM
PLK4 (human) = PLK4 (human) (UniProt O00444); conditions: compound 10.0 µM
RPS6KA2 KD2 (human) = RPS6KA2 KD2 (human) (UniProt Q15349); conditions: compound 10.0 µM
PIP5K1A (human) = PIP5K1A (human) (UniProt Q99755); conditions: compound 10.0 µM
MINK1 (human) = MINK1 (human) (UniProt Q8N4C8); conditions: compound 10.0 µM
MYLK (human) = MYLK (human) (UniProt Q15746); conditions: compound 10.0 µM
BMP2K (human) = BMP2K (human) (UniProt Q9NSY1); conditions: compound 10.0 µM
Sequence of BMP2K (human) (Q9NSY1 whole entry, looked up): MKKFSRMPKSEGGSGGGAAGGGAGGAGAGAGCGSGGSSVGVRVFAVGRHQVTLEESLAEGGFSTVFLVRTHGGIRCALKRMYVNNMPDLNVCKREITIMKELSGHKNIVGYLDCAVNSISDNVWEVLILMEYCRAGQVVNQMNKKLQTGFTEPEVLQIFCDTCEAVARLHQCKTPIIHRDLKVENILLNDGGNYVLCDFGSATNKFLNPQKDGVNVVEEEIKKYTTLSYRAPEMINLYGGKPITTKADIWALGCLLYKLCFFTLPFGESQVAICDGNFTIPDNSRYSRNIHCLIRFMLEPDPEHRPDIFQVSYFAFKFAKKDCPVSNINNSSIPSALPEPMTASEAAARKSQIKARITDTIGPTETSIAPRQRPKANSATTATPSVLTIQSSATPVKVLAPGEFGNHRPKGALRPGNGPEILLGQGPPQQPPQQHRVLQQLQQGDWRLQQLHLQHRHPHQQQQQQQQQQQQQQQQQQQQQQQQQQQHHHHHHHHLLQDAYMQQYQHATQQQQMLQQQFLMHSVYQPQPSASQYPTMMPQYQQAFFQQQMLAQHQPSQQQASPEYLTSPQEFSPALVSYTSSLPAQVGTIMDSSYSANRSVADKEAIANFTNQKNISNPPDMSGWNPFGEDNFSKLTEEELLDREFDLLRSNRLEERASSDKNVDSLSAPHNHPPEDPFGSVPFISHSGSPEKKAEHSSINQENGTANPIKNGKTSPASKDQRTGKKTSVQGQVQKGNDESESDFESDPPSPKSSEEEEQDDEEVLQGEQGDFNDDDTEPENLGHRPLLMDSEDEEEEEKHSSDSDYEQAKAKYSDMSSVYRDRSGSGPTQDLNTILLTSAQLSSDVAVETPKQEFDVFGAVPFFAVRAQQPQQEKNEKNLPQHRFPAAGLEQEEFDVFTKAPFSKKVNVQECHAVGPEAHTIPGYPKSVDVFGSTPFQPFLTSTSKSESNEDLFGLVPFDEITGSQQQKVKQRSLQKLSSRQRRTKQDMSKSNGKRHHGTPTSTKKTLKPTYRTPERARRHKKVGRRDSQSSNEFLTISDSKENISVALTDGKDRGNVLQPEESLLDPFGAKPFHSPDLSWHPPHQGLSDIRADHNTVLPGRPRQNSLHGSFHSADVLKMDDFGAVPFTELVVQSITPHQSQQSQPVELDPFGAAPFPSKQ

MYLK3 (human) = MYLK3 (human) (UniProt Q32MK0); conditions: compound 10.0 µM
MAP3K5 (human) = MAP3K5 (human) (UniProt Q99683); conditions: compound 10.0 µM
TAOK3 (human) = TAOK3 (human) (UniProt Q9H2K8); conditions: compound 10.0 µM
CDK7 (human) = CDK7 (human) (UniProt P50613); conditions: compound 10.0 µM
AAK1 (human) = AAK1 (human) (UniProt Q2M2I8); conditions: compound 10.0 µM
MAPK15 (human) = MAPK15 (human) (UniProt Q8TD08); conditions: for kinase still bound, per cent of control: compound 10.0 µM
MAP4K2 (human) = MAP4K2 (human) (UniProt Q12851); conditions: compound 10.0 µM
STK17A (human) = STK17A (human) (UniProt Q9UEE5); conditions: for kinase still bound, per cent of control: compound 10.0 µM
AURKB (human) = AURKB (human) (UniProt Q96GD4); conditions: compound 10.0 µM
CSNK2A1 (human) = CSNK2A1 (human) (UniProt P68400); conditions: for kinase still bound, per cent of control: compound 10.0 µM
Sequence of CSNK2A1 (human) (P68400 whole entry, looked up): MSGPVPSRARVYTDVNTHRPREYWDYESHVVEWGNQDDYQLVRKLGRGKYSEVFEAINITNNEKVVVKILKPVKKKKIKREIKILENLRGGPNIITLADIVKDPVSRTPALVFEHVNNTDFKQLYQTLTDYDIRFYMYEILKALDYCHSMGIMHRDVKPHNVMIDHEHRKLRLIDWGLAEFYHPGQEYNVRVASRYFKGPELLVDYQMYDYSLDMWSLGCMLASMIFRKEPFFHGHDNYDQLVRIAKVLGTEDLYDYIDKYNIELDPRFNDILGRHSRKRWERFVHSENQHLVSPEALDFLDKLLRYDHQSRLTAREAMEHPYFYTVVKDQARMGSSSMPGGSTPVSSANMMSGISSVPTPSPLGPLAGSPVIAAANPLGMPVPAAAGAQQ

ACVR2A (human) = ACVR2A (human) (UniProt P27037); conditions: compound 10.0 µM
Sequence of ACVR2A (human) (P27037 whole entry, looked up): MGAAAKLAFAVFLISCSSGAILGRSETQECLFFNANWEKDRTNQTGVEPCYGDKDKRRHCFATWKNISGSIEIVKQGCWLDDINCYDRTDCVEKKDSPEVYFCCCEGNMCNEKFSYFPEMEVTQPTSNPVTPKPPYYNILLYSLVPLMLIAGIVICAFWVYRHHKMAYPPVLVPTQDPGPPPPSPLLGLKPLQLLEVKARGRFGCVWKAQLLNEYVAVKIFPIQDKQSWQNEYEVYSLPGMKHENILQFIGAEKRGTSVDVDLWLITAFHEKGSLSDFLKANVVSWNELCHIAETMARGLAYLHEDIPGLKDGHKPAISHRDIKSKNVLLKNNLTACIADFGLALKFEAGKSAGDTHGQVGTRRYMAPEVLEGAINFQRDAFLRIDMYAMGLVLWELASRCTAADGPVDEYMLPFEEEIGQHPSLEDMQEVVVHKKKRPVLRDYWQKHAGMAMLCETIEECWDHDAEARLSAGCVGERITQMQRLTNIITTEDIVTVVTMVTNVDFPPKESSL

BRSK2 (human) = BRSK2 (human) (UniProt Q8IWQ3); conditions: compound 10.0 µM
NEK2 (human) = NEK2 (human) (UniProt P51955); conditions: compound 10.0 µM
RPS6KA5 KD2 (human) = RPS6KA5 KD2 (human) (UniProt O75582); conditions: compound 10.0 µM
Sequence of RPS6KA5 KD2 (human) (O75582 whole entry, looked up): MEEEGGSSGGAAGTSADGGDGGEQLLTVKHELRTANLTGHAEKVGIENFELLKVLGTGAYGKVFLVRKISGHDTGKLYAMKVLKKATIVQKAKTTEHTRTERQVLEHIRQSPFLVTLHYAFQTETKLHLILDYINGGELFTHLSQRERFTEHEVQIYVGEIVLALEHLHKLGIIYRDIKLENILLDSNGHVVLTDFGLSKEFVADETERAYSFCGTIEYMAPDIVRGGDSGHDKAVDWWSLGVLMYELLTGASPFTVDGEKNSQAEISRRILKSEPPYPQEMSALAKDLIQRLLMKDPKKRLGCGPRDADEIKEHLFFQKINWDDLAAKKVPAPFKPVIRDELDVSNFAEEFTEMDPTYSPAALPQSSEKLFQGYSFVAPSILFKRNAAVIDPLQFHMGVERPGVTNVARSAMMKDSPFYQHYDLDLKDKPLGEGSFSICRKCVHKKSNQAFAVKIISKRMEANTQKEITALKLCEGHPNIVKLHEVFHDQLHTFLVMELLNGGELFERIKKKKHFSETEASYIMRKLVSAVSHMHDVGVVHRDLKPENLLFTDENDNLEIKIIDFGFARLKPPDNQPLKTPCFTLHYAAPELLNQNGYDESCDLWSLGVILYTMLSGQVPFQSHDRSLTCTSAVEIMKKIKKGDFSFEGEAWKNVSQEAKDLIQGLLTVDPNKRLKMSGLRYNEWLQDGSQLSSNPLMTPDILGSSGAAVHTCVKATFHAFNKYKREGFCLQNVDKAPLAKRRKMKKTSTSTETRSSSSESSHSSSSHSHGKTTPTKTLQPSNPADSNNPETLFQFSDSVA

MAP3K7 (human) = MAP3K7 (human) (UniProt O43318); conditions: compound 10.0 µM
PIM1 (human) = PIM1 (human) (UniProt P11309); conditions: for kinase still bound, per cent of control: compound 10.0 µM
AURKC (human) = AURKC (human) (UniProt Q9UQB9); conditions: compound 10.0 µM
DCLK3 (human) = DCLK3 (human) (UniProt Q9C098); conditions: compound 10.0 µM
CIT (human) = CIT (human) (UniProt O14578); conditions: compound 10.0 µM
[1] = tested on: FLT3 (human), P36888 [N841I]; conditions: compound 10.0 µM
[2] = tested on: EIF2AK4 KD2 (human), Q9P2K8 [S808G]; conditions: compound 10.0 µM
Sequence of EIF2AK4 KD2 (human), Q9P2K8 [S808G] (Q9P2K8 whole entry S808G, looked up): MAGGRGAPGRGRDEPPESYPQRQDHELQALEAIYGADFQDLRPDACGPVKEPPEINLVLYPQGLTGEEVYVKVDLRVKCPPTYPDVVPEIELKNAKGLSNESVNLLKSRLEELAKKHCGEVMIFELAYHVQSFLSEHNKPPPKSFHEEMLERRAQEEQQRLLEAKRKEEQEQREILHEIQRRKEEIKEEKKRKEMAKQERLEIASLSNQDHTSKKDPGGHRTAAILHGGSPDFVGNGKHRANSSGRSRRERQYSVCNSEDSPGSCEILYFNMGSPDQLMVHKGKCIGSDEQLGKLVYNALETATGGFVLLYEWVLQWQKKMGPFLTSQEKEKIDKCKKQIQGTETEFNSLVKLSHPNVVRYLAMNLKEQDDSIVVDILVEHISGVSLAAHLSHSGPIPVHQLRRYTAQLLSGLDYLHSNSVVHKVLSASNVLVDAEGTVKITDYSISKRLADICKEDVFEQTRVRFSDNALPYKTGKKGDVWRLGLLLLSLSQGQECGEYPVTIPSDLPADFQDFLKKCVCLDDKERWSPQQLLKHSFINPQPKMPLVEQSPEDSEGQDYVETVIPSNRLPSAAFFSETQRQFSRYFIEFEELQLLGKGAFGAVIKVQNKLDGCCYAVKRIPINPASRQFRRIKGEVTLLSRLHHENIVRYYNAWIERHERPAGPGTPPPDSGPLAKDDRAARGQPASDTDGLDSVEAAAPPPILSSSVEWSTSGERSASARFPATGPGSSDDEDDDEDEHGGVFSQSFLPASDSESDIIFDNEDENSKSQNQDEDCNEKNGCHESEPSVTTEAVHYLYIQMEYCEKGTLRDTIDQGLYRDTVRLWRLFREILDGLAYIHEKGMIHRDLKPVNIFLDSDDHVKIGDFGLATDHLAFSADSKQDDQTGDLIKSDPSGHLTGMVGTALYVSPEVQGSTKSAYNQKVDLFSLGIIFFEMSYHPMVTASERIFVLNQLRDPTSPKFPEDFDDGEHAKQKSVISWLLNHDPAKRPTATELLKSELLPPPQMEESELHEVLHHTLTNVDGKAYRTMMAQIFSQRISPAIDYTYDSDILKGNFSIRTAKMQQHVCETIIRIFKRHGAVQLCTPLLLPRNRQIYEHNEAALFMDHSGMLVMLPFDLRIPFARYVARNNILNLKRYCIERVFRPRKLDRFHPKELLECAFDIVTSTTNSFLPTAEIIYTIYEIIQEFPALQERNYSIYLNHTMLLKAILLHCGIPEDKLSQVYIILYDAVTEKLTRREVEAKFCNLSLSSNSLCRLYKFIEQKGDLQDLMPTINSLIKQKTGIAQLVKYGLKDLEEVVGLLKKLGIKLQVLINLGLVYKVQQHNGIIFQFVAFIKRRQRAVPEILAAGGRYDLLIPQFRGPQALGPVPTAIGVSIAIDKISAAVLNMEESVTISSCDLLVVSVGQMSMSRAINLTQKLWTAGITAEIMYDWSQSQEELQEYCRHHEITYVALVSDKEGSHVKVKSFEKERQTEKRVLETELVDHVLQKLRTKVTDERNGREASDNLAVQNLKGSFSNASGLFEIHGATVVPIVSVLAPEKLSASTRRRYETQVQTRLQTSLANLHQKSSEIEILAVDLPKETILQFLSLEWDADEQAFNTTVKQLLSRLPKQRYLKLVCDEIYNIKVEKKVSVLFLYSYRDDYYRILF

CSNK1G1 (human) = CSNK1G1 (human) (UniProt Q9HCP0); conditions: compound 10.0 µM
ACVR2B (human) = ACVR2B (human) (UniProt Q13705); conditions: compound 10.0 µM
PHKG2 (human) = PHKG2 (human) (UniProt P15735); conditions: compound 10.0 µM
CSNK1D (human) = CSNK1D (human) (UniProt P48730); conditions: compound 10.0 µM
[3] = tested on: KIT (human), P10721 [D816V]; conditions: compound 10.0 µM
PIM3 (human) = PIM3 (human) (UniProt Q86V86); conditions: for kinase still bound, per cent of control: compound 10.0 µM
PIK3CG (human) = PIK3CG (human) (UniProt P48736); conditions: compound 10.0 µM

kinase still bound, per cent of control (PIP4K2B (human)): 1.1%
Kd (STK17B (human)): 0.13 µM
kinase still bound, per cent of control (STK17B (human)): 0.15%
kinase still bound, per cent of control (CDK16 (human)): 70%
kinase still bound, per cent of control (MKNK2 (human)): 93%
kinase still bound, per cent of control (DMPK (human)): 3.6%
Kd (CSNK2A2 (human)): 0.0061 µM
kinase still bound, per cent of control (CSNK2A2 (human)): 0%
kinase still bound, per cent of control (GSK3A (human)): 75%
kinase still bound, per cent of control (RIOK1 (human)): 5%
kinase still bound, per cent of control (PLK4 (human)): 90%
kinase still bound, per cent of control (RPS6KA2 KD2 (human)): 1.2%
kinase still bound, per cent of control (PIP5K1A (human)): 28%
kinase still bound, per cent of control (MINK1 (human)): 42%
kinase still bound, per cent of control (MYLK (human)): 42%
kinase still bound, per cent of control (BMP2K (human)): 2%
kinase still bound, per cent of control (MYLK3 (human)): 2.6%
kinase still bound, per cent of control (MAP3K5 (human)): 100%
kinase still bound, per cent of control (TAOK3 (human)): 8.6%
kinase still bound, per cent of control (CDK7 (human)): 5.6%
kinase still bound, per cent of control (AAK1 (human)): 2.4%
kinase still bound, per cent of control (MAP4K2 (human)): 32%
Kd (STK17A (human)): 0.19 µM
kinase still bound, per cent of control (STK17A (human)): 0.05%
kinase still bound, per cent of control (AURKB (human)): 71%
Kd (CSNK2A1 (human)): 0.031 µM
kinase still bound, per cent of control (CSNK2A1 (human)): 0.65%
kinase still bound, per cent of control (ACVR2A (human)): 76%
kinase still bound, per cent of control (BRSK2 (human)): 100%
kinase still bound, per cent of control (NEK2 (human)): 13%
kinase still bound, per cent of control (RPS6KA5 KD2 (human)): 59%
kinase still bound, per cent of control (MAP3K7 (human)): 91%
Kd (PIM1 (human)): 0.037 µM
kinase still bound, per cent of control (PIM1 (human)): 0.95%
kinase still bound, per cent of control (AURKC (human)): 57%
kinase still bound, per cent of control (DCLK3 (human)): 2%
kinase still bound, per cent of control (CIT (human)): 37%
kinase still bound, per cent of control [1]: 67%
kinase still bound, per cent of control [2]: 2.6%
kinase still bound, per cent of control (CSNK1G1 (human)): 35%
kinase still bound, per cent of control (ACVR2B (human)): 36%
kinase still bound, per cent of control (PHKG2 (human)): 6.6%
kinase still bound, per cent of control (CSNK1D (human)): 13%
kinase still bound, per cent of control [3]: 76%
Kd (PIM3 (human)): 0.0037 µM
kinase still bound, per cent of control (PIM3 (human)): 0.65%
kinase still bound, per cent of control (PIK3CG (human)): 0.3%
Compound: O=C1NC(=O)/C(=C/c2c[nH]c(=O)c(-c3ccc(N4CCNCC4)nc3)c2)S1
Kd (MAPK15 (human)): 0.39 µM
kinase still bound, per cent of control (MAPK15 (human)): 0.5%

kinase still bound, per cent of control (PIP4K2B (human)): 91%
kinase still bound, per cent of control (STK17B (human)): 100%
kinase still bound, per cent of control (CDK16 (human)): 93%
kinase still bound, per cent of control (MKNK2 (human)): 0.55%
kinase still bound, per cent of control (DMPK (human)): 100%
kinase still bound, per cent of control (CSNK2A2 (human)): 88%
kinase still bound, per cent of control (GSK3A (human)): 100%
kinase still bound, per cent of control (RIOK1 (human)): 78%
kinase still bound, per cent of control (PLK4 (human)): 67%
kinase still bound, per cent of control (RPS6KA2 KD2 (human)): 97%
kinase still bound, per cent of control (PIP5K1A (human)): 95%
kinase still bound, per cent of control (MINK1 (human)): 100%
kinase still bound, per cent of control (MYLK (human)): 97%
kinase still bound, per cent of control (BMP2K (human)): 100%
kinase still bound, per cent of control (MYLK3 (human)): 100%
kinase still bound, per cent of control (MAP3K5 (human)): 100%
kinase still bound, per cent of control (TAOK3 (human)): 67%
kinase still bound, per cent of control (CDK7 (human)): 100%
kinase still bound, per cent of control (AAK1 (human)): 88%
kinase still bound, per cent of control (MAP4K2 (human)): 100%
kinase still bound, per cent of control (STK17A (human)): 100%
kinase still bound, per cent of control (AURKB (human)): 100%
kinase still bound, per cent of control (CSNK2A1 (human)): 88%
kinase still bound, per cent of control (ACVR2A (human)): 92%
kinase still bound, per cent of control (BRSK2 (human)): 85%
kinase still bound, per cent of control (NEK2 (human)): 96%
kinase still bound, per cent of control (RPS6KA5 KD2 (human)): 93%
kinase still bound, per cent of control (MAP3K7 (human)): 100%
kinase still bound, per cent of control (PIM1 (human)): 91%
kinase still bound, per cent of control (AURKC (human)): 86%
kinase still bound, per cent of control (DCLK3 (human)): 100%
kinase still bound, per cent of control (CIT (human)): 95%
kinase still bound, per cent of control [1]: 92%
kinase still bound, per cent of control [2]: 100%
kinase still bound, per cent of control (CSNK1G1 (human)): 100%
kinase still bound, per cent of control (ACVR2B (human)): 92%
kinase still bound, per cent of control (PHKG2 (human)): 15%
kinase still bound, per cent of control (CSNK1D (human)): 76%
kinase still bound, per cent of control [3]: 100%
kinase still bound, per cent of control (PIM3 (human)): 84%
kinase still bound, per cent of control (PIK3CG (human)): 100%
Compound: COc1cc(N2CCN(C)CC2)ccc1Nc1ncc2c(n1)N(C)c1ccccc1N(C)C2=O
kinase still bound, per cent of control (MAPK15 (human)): 100%

kinase still bound, per cent of control (PIP4K2B (human)): 89%
kinase still bound, per cent of control (STK17B (human)): 100%
kinase still bound, per cent of control (CDK16 (human)): 97%
kinase still bound, per cent of control (MKNK2 (human)): 24%
kinase still bound, per cent of control (DMPK (human)): 100%
kinase still bound, per cent of control (CSNK2A2 (human)): 52%
kinase still bound, per cent of control (GSK3A (human)): 100%
kinase still bound, per cent of control (RIOK1 (human)): 71%
kinase still bound, per cent of control (PLK4 (human)): 9.9%
kinase still bound, per cent of control (RPS6KA2 KD2 (human)): 15%
kinase still bound, per cent of control (PIP5K1A (human)): 65%
kinase still bound, per cent of control (MINK1 (human)): 46%
kinase still bound, per cent of control (MYLK (human)): 17%
kinase still bound, per cent of control (BMP2K (human)): 98%
kinase still bound, per cent of control (MYLK3 (human)): 86%
kinase still bound, per cent of control (MAP3K5 (human)): 74%
kinase still bound, per cent of control (TAOK3 (human)): 13%
kinase still bound, per cent of control (CDK7 (human)): 67%
kinase still bound, per cent of control (AAK1 (human)): 75%
kinase still bound, per cent of control (MAP4K2 (human)): 96%
kinase still bound, per cent of control (STK17A (human)): 96%
kinase still bound, per cent of control (AURKB (human)): 56%
kinase still bound, per cent of control (CSNK2A1 (human)): 82%
kinase still bound, per cent of control (ACVR2A (human)): 100%
kinase still bound, per cent of control (BRSK2 (human)): 100%
kinase still bound, per cent of control (NEK2 (human)): 83%
kinase still bound, per cent of control (RPS6KA5 KD2 (human)): 57%
kinase still bound, per cent of control (MAP3K7 (human)): 81%
kinase still bound, per cent of control (PIM1 (human)): 66%
kinase still bound, per cent of control (AURKC (human)): 82%
kinase still bound, per cent of control (DCLK3 (human)): 18%
kinase still bound, per cent of control (CIT (human)): 85%
kinase still bound, per cent of control [1]: 78%
kinase still bound, per cent of control [2]: 82%
kinase still bound, per cent of control (CSNK1G1 (human)): 89%
kinase still bound, per cent of control (ACVR2B (human)): 100%
kinase still bound, per cent of control (PHKG2 (human)): 46%
kinase still bound, per cent of control (CSNK1D (human)): 81%
kinase still bound, per cent of control [3]: 100%
kinase still bound, per cent of control (PIM3 (human)): 62%
kinase still bound, per cent of control (PIK3CG (human)): 73%
Compound: COc1cc(N2CCN(C)CC2)ccc1Nc1ncc2c(n1)N(C)c1sccc1C(=O)N2C
kinase still bound, per cent of control (MAPK15 (human)): 87%
